Nine compounds from PMC6615261, “Repurposing Azithromycin and Rifampicin Against Gram-Negative Pathogens by Combination With Peptidomimetics” (Frontiers in Cellular and Infection Microbiology, 2019) can be followed below.

In general, MIC refers to the smallest concentration in the dilution series that meets the test's criterion for growth inhibition.

Experiment [1] concerns K. pneumoniae ST258. As to the kind of experiment: Potentiation of additional antibiotics (COMPAN1F plates), MIC. Format: cell-based, Klebsiella pneumoniae. To be noted: for MIC of antibiotic in presence of peptidomimetic 1: + 1 μM peptidomimetic 1; for MIC of antibiotic in presence of peptidomimetic 15: + 1 μM peptidomimetic 15; for MIC of antibiotic in presence of peptidomimetic 26: + 1 μM peptidomimetic 26; for MIC: Klebsiella pneumoniae, read-out: MIC of antibiotic alone. The procedure:
(§1) Minimal inhibitory concentrations (MICs) of peptidomimetics, antibiotics and their combinations were determined by broth microdilution according to the Clinical Laboratory Standards Institute performance standards (Clinical and Laboratory Standards Institute, [2013]). […] Since rifampicin and azithromycin mainly are used to treat infections with Gram-positive pathogens only CLSI clinical breakpoints were available for such bacteria. […] Potentiation of additional antibiotics by peptidomimetics was determined by using commercial 96-well plates containing varied concentrations of standard antibiotics (COMPAN1F; Trek Diagnostic Systems Inc.). The peptidomimetics were added immediately prior to inoculation with pathogen, and then MICs were determined as above. The MICs of peptidomimetic/antibiotic combinations were determined according to the method above, and the concentration ratios were selected based upon checkerboard results with 2:1 and 1:4 ratio of peptidomimetic with rifampicin or azithromycin, respectively. Minimal bactericidal concentrations (MBCs) were determined by using growth-curve assay plates. MIC plates were prepared as above, and then the plates were incubated at 37°C with continuous shaking. Growth was recorded at 10 min intervals as optical density (OD) at 600 nm during 24 h. At 24 h, for wells without growth, a sample was diluted 10-fold in sterile saline (0.9% sodium chloride) and plated onto MHA, following CLSI guidelines (Clinical and Laboratory Standards Institute, [1999]).

In the next experiment the test system is E. coli ST131. Described as above. The format is cell-based, Escherichia coli. To be noted: for MIC of antibiotic in presence of peptidomimetic 1: + 0.5 μM peptidomimetic 1; for MIC of antibiotic in presence of peptidomimetic 15: + 0.5 μM peptidomimetic 15; for MIC: Escherichia coli, read-out: MIC of antibiotic alone; for MIC of antibiotic in presence of peptidomimetic 26: + 0.25 μM peptidomimetic 26. On the procedure: as §1

The test system of another experiment is MDR E. coli ST131. As to the kind of experiment: Screening of peptidomimetic-antibiotic combinations (growth / growth inhibition). Set-up: key to Growth in combination with RIF / Growth in combination with AZM: Growth (+); growth inhibition (–). The format is cell-based, Escherichia coli. To be noted: for Growth in combination with AZM: peptidomimetic 0.5 μM + azithromycin 1 μg/mL; for Growth in combination with RIF: peptidomimetic 0.5 μM + rifampicin 0.5 μg/mL. On the procedure:
as §1

The subject of experiment [2] is K. pneumoniae ST258. The experiment is described as above. The format is cell-based, Klebsiella pneumoniae. Also noted: key to Growth in combination with RIF / Growth in combination with AZM: Growth (+); growth inhibition (–). Particulars: for Growth in combination with AZM: peptidomimetic 0.5 μM + azithromycin 1 μg/mL; for Growth in combination with RIF: peptidomimetic 0.5 μM + rifampicin 0.5 μg/mL. The procedure:
as §1

As to `CC1(C)S[C@@H]2[C@H](NC(=O)[C@H](C(=O)O)c3ccsc3)C(=O)N2[C@H]1C(=O)O` [Ticarcillin], the “MIC of antibiotic in presence of peptidomimetic 1” value in the experiment with K. pneumoniae ST258 [1] and in the experiment with E. coli ST131 was more than 64 µg/mL throughout. Moreover, the “MIC of antibiotic in presence of peptidomimetic 15” value (“MIC … of peptidomimetic 15” below) in the experiment on K. pneumoniae ST258 [1] and with E. coli ST131 was more than 64 µg/mL throughout. In addition, the “MIC of antibiotic in presence of peptidomimetic 26” value (from here on “MIC … of peptidomimetic 26”) with K. pneumoniae ST258 [1] is more than 64 µg/mL. For the same compound, the MIC in the experiment on K. pneumoniae ST258 [1] (no peptidomimetic) and in the experiment on E. coli ST131 (no peptidomimetic) was more than 64 µg/mL in each case.

Consider Penicillin, for which, in the experiment with K. pneumoniae ST258 [1], the “MIC of antibiotic in presence of peptidomimetic 1” value was more than 8 µg/mL, the “MIC … of peptidomimetic 15” value is more than 8 µg/mL and the “MIC … of peptidomimetic 26” value is more than 8 µg/mL. In the experiment with K. pneumoniae ST258 [1] (no peptidomimetic), the “MIC of antibiotic alone” value is more than 8 µg/mL. Also, in the experiment with E. coli ST131, the “MIC … of peptidomimetic 26” value was more than 8 µg/mL, the “MIC of antibiotic in presence of peptidomimetic 1” value is more than 8 µg/mL and the “MIC … of peptidomimetic 15” value was more than 8 µg/mL. The “MIC of antibiotic alone” value in the experiment on E. coli ST131 (no peptidomimetic) is more than 8 µg/mL.

On to `NCC[C@H](O)C(=O)N[C@@H]1C[C@H](N)[C@@H](O[C@H]2O[C@H](CN)[C@@H](O)[C@H](O)[C@H]2O)[C@H](O)[C@H]1O[C@H]1O[C@H](CO)[C@@H](O)[C@H](N)[C@H]1O` [Amikacin], for which, in the experiment on K. pneumoniae ST258 [1], the “MIC of antibiotic in presence of peptidomimetic 1” value was found to be 32 µg/mL, the “MIC … of peptidomimetic 15” value came to 32 µg/mL and the “MIC … of peptidomimetic 26” value came to 16 µg/mL. In addition, the MIC in the experiment with K. pneumoniae ST258 [1] (no peptidomimetic) stood at 32 µg/mL. Further, in the experiment with E. coli ST131, the “MIC … of peptidomimetic 26” value was 8 µg/mL, the “MIC of antibiotic in presence of peptidomimetic 1” value is more than 32 µg/mL and the “MIC … of peptidomimetic 15” value is 8 µg/mL. In the experiment with E. coli ST131 (no peptidomimetic), the MIC is 16 µg/mL.

In the case of `C[C@H]1c2cccc(O)c2C(=O)C2=C(O)[C@]3(O)C(=O)C(C(N)=O)=C(O)[C@@H](N(C)C)[C@@H]3[C@@H](O)[C@@H]21` [Doxycycline], in the experiment on K. pneumoniae ST258 [1], the “MIC of antibiotic in presence of peptidomimetic 1” value is not above 2 µg/mL, the “MIC … of peptidomimetic 15” value is not above 2 µg/mL and the “MIC … of peptidomimetic 26” value was not above 2 µg/mL. The MIC with K. pneumoniae ST258 [1] (no peptidomimetic) is 4 µg/mL. In addition, in the experiment on E. coli ST131, the “MIC … of peptidomimetic 26” value was not above 2 µg/mL, the “MIC of antibiotic in presence of peptidomimetic 1” value is not above 2 µg/mL and the “MIC … of peptidomimetic 15” value is not above 2 µg/mL. The MIC with E. coli ST131 (no peptidomimetic) is not above 2 µg/mL.

On to “Ac-[(S)-Aoc]-(Lys-βNPhe)6-NH2 [Peptidomimetic 41]”, for which the “Growth in combination with AZM” value was “–” in the experiment on MDR E. coli ST131 and “+” with K. pneumoniae ST258 [2]. The “Growth in combination with RIF” value in the experiment on MDR E. coli ST131 is “–”; in the experiment on K. pneumoniae ST258 [2], “+”.

As to Ac-(NLys-Trp)8-NH2 [Peptidomimetic 20], in the experiment on MDR E. coli ST131, the “Growth in combination with AZM” value is reported as “+” and the “Growth in combination with RIF” value is listed as “–”. In addition, in the experiment on K. pneumoniae ST258 [2], the “Growth in combination with AZM” value is recorded as “+” and the “Growth in combination with RIF” value is “+”.

On to Ac-(hArg-βNchx)6-NH2 [Peptidomimetic 7], for which, in the experiment with MDR E. coli ST131, the “Growth in combination with AZM” value is “+” and the “Growth in combination with RIF” value is given as “+”. For the same compound, in the experiment with K. pneumoniae ST258 [2], the “Growth in combination with AZM” value was “+” and the “Growth in combination with RIF” value is “+”.

Take “Pam-(Lys-βNspe-hArg-βNspe)3-NH2 [Peptidomimetic 12]”: the “Potentiation in the screening, rifampicin or azithromycin” value in the experiment with MDR E. coli ST131 (0.5 μM peptidomimetic) and in the experiment on K. pneumoniae ST258 [2] (0.5 μM peptidomimetic) was “did not exhibit any potentiation activity” in each case. Further, the “Growth in combination with AZM” value in the experiment on MDR E. coli ST131 and with K. pneumoniae ST258 [2] was “+” each time. The “Growth in combination with RIF” value in the experiment with MDR E. coli ST131 and with K. pneumoniae ST258 [2] was “+” throughout.

On to “Ac-(hArg-βNspe)6-(Trp)2-NH2 [Peptidomimetic 16]”, for which the “Growth in combination with AZM” value in the experiment on MDR E. coli ST131 and with K. pneumoniae ST258 [2] was “+” each time. Further, the “Growth in combination with RIF” value in the experiment with MDR E. coli ST131 and in the experiment with K. pneumoniae ST258 [2] was “+” throughout.
